Assay results: ChEMBL document CHEMBL1933054, “Structure-based design of PDK1 inhibitors” (Bioorg Med Chem Lett, 2012)

Legend:
[1] = target: Tyrosine-protein kinase JAK2 (Homo sapiens, UniProt O60674); experiment: Inhibition of JAK2
[2] = target: Cyclin-dependent kinase 2 (Homo sapiens, UniProt P24941); experiment: Inhibition of CDK2
[3] = target: T1, Receptor-type tyrosine-protein kinase FLT3 (Homo sapiens, UniProt P36888); experiment: Inhibition of Flt3
T1 sequence (P36888 whole entry): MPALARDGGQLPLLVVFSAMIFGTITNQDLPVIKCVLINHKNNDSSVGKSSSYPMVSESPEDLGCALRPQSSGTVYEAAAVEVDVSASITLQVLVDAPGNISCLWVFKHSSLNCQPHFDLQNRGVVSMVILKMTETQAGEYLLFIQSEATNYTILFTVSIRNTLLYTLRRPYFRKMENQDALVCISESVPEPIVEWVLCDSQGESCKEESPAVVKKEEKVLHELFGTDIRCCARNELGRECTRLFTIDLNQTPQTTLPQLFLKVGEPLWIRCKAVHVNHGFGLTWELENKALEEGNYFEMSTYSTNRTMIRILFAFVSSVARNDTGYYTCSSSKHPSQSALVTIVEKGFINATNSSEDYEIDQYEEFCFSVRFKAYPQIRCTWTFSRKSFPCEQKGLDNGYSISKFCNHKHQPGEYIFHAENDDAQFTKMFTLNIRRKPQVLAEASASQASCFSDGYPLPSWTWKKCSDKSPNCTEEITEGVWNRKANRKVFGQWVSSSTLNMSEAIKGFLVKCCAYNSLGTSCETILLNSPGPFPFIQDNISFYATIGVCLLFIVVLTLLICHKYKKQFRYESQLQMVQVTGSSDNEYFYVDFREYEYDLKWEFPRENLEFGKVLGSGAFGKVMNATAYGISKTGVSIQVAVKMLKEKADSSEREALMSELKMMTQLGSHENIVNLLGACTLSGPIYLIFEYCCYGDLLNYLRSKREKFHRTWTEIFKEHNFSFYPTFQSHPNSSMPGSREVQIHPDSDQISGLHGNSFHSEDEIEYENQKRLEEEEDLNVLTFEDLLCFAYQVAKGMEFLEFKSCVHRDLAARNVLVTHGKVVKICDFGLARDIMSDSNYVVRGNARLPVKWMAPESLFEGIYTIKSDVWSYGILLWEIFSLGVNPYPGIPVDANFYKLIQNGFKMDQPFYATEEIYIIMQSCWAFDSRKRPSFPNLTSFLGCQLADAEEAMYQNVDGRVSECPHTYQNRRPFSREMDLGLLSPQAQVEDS

[4] = target: T2, 3-phosphoinositide-dependent protein kinase 1 (Homo sapiens, UniProt O15530); experiment: Inhibition of PDK1 using [gamma33P]-ATP as substrate after 30 mins by scintillation counting
T2 sequence (O15530 whole entry): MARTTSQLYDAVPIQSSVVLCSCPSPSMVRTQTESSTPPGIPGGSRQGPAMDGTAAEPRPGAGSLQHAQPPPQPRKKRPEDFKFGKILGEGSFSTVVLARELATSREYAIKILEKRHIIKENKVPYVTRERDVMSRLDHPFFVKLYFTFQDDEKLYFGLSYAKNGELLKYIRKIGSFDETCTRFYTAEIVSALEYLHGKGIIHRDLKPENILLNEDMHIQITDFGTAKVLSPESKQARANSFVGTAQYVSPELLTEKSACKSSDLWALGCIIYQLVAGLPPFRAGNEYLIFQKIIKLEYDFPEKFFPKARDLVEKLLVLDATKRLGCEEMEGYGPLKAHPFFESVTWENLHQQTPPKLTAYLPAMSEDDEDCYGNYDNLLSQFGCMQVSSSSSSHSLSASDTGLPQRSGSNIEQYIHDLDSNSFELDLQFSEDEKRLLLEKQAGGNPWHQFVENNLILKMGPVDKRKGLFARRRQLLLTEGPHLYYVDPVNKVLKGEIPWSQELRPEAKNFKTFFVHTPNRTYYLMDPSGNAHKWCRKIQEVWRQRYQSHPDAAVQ

[5] = Oral bioavailability in mouse; format: ADME, organism-based; conditions: in vivo
[6] = Half life in human liver microsomes; format: ADME, Microsome

Chain of Tyrosine-protein kinase JAK2 (O60674 whole entry): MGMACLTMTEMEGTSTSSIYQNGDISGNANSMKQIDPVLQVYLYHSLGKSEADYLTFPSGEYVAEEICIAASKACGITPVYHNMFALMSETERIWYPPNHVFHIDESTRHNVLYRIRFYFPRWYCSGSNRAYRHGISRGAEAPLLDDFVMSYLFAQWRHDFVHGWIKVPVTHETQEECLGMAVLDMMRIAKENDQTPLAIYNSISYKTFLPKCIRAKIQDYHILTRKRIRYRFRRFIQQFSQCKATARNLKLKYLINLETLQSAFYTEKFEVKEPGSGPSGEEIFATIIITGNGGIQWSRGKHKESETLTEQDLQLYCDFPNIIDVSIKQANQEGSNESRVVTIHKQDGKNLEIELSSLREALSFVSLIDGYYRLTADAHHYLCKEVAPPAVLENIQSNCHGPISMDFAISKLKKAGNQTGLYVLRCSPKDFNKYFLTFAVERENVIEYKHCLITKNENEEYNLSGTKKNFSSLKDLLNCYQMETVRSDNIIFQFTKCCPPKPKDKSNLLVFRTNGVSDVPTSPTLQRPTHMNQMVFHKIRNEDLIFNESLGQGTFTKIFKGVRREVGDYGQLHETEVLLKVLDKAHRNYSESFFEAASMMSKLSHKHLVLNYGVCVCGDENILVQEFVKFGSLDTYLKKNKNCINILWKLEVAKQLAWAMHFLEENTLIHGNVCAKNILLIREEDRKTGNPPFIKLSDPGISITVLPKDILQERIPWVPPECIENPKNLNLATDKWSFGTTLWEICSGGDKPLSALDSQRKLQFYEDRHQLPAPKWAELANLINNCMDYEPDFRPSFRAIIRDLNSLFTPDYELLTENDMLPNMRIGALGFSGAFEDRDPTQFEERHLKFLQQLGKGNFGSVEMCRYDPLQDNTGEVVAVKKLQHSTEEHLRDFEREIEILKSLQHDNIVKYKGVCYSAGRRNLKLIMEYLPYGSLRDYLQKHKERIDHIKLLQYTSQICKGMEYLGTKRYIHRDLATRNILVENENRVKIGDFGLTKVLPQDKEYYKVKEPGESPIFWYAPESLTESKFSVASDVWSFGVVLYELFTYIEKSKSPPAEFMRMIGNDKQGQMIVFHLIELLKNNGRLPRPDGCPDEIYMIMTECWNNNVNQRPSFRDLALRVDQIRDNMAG

| IC50 [1] [nM] | IC50 [2] [nM] | IC50 [3] [nM] | IC50 [4] [nM] | bioavailability [5] [%] | half-life [6] [h] | Compound |
| --- | --- | --- | --- | --- | --- | --- |
| 180 | 150 | 22 | 1400 | – | – | Cc1cnc2nc1-c1cccc(c1)OCC/C=C/CN(C)Cc1cccc(c1)N2 |
| – | 4100 | 58 | 390 | – | – | CN1C/C=C/CCOc2cccc(c2)-c2nc(nc3[nH]cnc23)Nc2cccc(c2)C1 |
| 830 | 7000 | 7300 | 1600 | – | – | Oc1ccc(-c2nc(Nc3cccc(Cl)c3)nc3[nH]cnc23)cc1 |
| 330 | > 10000 | 350 | 98 | – | – | COc1ccc(-c2nc(Nc3cccc(NC(=O)CN)c3)nc3[nH]cnc23)cc1OC |
| – | – | – | – | 65 | > 1 | COc1ccc(-c2nc(Nc3cccc(NC(=O)N4CCCC4)c3)nc3nc[nH]c23)cc1 |
| – | 1500 | – | – | – | – | CC(C)(C(N)=O)C(=O)NCCCNc1nc(Nc2cccc(NC(=O)N3CCCC3)c2)ncc1Br |
